The melting point is the temperature, or range, at which the solid turns liquid. In general, Ki refers to a dissociation constant, usually derived from enzyme kinetics or from competition with a known ligand. High values mean weaker binding, low ones tighter binding. The term IC50 denotes the concentration that gives 50% inhibition.

Data on 17 compounds can be found in patent US6818640B1, “2-imino-1,3-thiazine derivatives” (Shionogi & Co., Ltd., priority 1999, dated 2004).

Data set [1] addresses T1, human CB2R (Homo sapiens, UniProt P34972).
T1 construct: The coding region of human CB2R cDNA; expressed in transfected cells
The experiment in a line: Human CB2 receptor (CB2R) binding inhibition, [3H]CP55940, membranes of CB2R-expressing CHO cells. As for the experimental part: The prepared vector was transfected into Chinese Hamster Ovary (CHO) cells with LipofectAMINE reagent (Gibco BRL) according to the manufacture's protocol, and the stable CB2R-expressing clones were selected.
(§1) The crude membrane fractions were then prepared from the CB2R-expressing CHO cells. Receptor binding assay was performed by incubating the membranes with each test compound and [^3H]CP55940 (at a final concentration of 0.5 nM: NEN Life Science Products) in the assay buffer (50 mM Tris-HCl, 1 mM EDTA, 3 mM MgCl2, pH 7.4) containing 0.5% bovine serum albumin (BSA) for 2 hr at 25° C. The incubation mixture was filtered through 1% polyethylenimine (PEI)-treated GF/C glass filter and washed with 50 mM Tris-HCl (pH 7.4) containing 0.1% BSA. The radioactivity was then counted with a liquid scintillation counter.
(§2) For the receptor binding assay of human CB1 receptor (CB1R), the stable CB1R-expressing CHO cells were prepared as described above, and the binding assay was performed with their membrane fractions. As a consequence of these studies, the Ki values of each test compound for both cannabinoid receptors were determined, which were presented in Table 89.

The target in data set [2] is T2, human CB1 receptor (CB1R) (Homo sapiens, UniProt P21554).
T2 construct: expressed in transfected cells
Briefly: Receptor binding assay of human CB1 receptor (CB1R), membranes of CB1R-expressing CHO cells. Here is the method:
as §1, §2

The target of data set [3] is T1, human CB2R. Briefly: CB2R-mediated suppression of forskolin-stimulated cAMP synthesis (agonistic activity), CHO cells expressing human CB2R. The format is cell-based. As for the experimental part:
After the incubation, 4 μM forskolin (Sigma) was added and the cells were incubated for 20 min at 37° C. The reaction was stopped by the addition of 1N HCl and the amount of cAMP in the cell supernatant was measured using an EIA kit (Amersham Pharmacia Biotech) according to the manufacture's protocol.

In data set [4] the test system is SRBC-induced DTH reaction. The experiment in a line: Sheep red blood cell (SRBC)-induced delayed type hypersensitive (DTH) reaction, foot pad swelling. The data set is classed as in vivo. Particulars: female ddY mice, measured after 24 hrs. Here is the method:
Female ddY mice (7 weeks old) were used for the sheep red blood cell (SRBC)-induced delayed type hypersensitive (DTH) reaction.
Cannabinoid receptor agonist, I-6, I-60, I-77 and I-118 were suspended in 0.6% arabic gum solution. Mice were sensitized by the intradermal injection of 10^7 cells of SRBC (40 μl/foot) into the left hind foot pad. After 5 days, DTH reaction was induced by the intradermal injection of 10^8 cells of SRBC in the right hind foot pad. Test compounds were administerd p.o. (10 ml/kg) 1 hr before and 5 hr after the induction of DTH reaction. After 24 hrs of the injection of SRBC, the left and right foot pad volumes were measured by the water displacement method. The foot pad swelling was calculated as the differences in the volumes between the right and left hind foot pad, and used as an index of the DTH reaction.
Data are expressed as the inhibition percentage of each compound. Statistical analysis was performed with Welch's t-test, in which the value of P<0.05 is considered as a significant difference.

Setting [5] is: dose 30 mg/kg p.o. 1 hr before and 5 hr after induction.

Like-named read-outs stand apart in the source and are kept apart here. Bounds are passed on as bounds.

T1 sequence (P34972 whole entry): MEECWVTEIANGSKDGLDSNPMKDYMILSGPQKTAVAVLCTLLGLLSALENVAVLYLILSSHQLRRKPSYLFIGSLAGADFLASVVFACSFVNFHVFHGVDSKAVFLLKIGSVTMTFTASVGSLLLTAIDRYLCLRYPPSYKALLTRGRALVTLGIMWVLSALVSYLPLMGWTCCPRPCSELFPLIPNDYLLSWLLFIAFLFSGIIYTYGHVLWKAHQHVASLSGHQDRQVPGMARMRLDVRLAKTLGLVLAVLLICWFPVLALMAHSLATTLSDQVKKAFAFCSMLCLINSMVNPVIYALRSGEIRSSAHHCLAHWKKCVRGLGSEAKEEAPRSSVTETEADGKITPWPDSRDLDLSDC
T2 sequence (P21554 whole entry): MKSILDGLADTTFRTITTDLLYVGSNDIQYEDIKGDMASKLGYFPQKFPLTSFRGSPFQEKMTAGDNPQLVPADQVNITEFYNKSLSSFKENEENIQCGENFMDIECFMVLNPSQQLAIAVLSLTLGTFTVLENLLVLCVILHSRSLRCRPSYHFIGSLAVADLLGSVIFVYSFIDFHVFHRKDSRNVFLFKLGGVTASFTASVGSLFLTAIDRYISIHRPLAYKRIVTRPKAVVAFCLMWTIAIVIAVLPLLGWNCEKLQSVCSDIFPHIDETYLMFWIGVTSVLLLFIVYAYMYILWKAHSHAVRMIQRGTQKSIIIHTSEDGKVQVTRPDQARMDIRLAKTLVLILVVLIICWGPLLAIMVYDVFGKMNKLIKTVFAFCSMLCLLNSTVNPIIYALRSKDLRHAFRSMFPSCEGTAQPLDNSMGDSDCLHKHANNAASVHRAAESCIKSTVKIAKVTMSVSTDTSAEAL

`CCOc1ccc(/N=C2\SCC(C)(C)CN2C(=O)OC)cc1OCC`: the melting point fell in the range of 75 to 76 °C.

In the case of `CCOC(=O)N1CC(C)(C)CSC1=Nc1ccccc1C(C)C`, the melting point is 84 to 86 °C.

`CSC(=S)N1CC(C)(C)CSC1=Nc1ccccc1C(C)C` [Compound I-5, 2-(2-isopropylphenyl)imino-3-(methylthio)thiocarbonyl-5,5-dimethyl-1,3-thiazine] yielded a melting point of 77 to 79 °C. In data set [1], the Ki was found to be 61 nM. Moreover, in data set [2], the Ki is over 5000 nM. In data set [3], this compound registered an IC50 of 6.5 nM.

The compound `CCSC(=O)N1CCSC1=Nc1ccccc1C(C)C` [Compound I-6, 3-(ethylthiocarbonyl)-2-(2-isopropylphenyl)imino-1,3-thiazolidine] displayed a melting point of 79 to 81 °C. Also, affinity in data set [1] was put at a Ki of 9 nM. For the same compound, the IC50 in data set [3] (CHO cells expressing human CB2R, 4 μM forskolin, read-out: IC50 (inhibition of forskolin-stimulated cAMP synthesis)) worked out at 2.7 nM. In data set [4] (dose 40 mg/kg p.o. 1 hr before and 5 hr after induction), the “Inhibition percentage (foot pad swelling, DTH reaction)” value (“Inhibition percentage” below) was 45.2%.

As for `CCSC(=O)N1CC(C)(C)CSC1=Nc1ccccc1C(C)CC` (stereo not drawn) [Compound I-23], the Ki in data set [1] is 29 nM; in data set [2], over 5000 nM. In data set [3], this compound came in with an IC50 of 2.6 nM.

With `CSC(=O)N1CC(C)(C)CSC1=Nc1ccccc1C(C)C` [Compound I-50], the Ki in data set [1] is 39 nM; in data set [2], over 5000 nM.

Compound `CCC(C)c1ccccc1N=C1SCC(C)(C)CN1C(=O)SC` (stereo not drawn) [Compound I-51] returned a Ki in data set [1] of 23 nM. Further, in data set [3], the IC50 came to 2.8 nM.

On to `CSC(=O)N1CC(C)(C)CSC1=Nc1cccc(C(C)C)c1` [Compound I-52], for which, in data set [1], affinity was put at a Ki of 35 nM.

The compound `CCc1ccccc1N=C1SCC(C)(C)CN1C(=S)SC` [Compound I-56] registered a Ki in data set [1] of 54 nM.

`CCC(C)c1ccccc1N=C1SCC(C)(C)CN1C(=S)SC` (stereo not drawn) [Compound I-57]: the Ki in data set [1] was 6 nM; in data set [2], 4130 nM. The IC50 in data set [3] turned out to be 5.5 nM.

As to `COc1ccccc1N=C1SCC(C)(C)CN1C(=S)SC` [Compound I-60], the Ki in data set [1] was found to be 18 nM; in data set [2] it was 2100 nM. Moreover, in data set [4] (setting [5]), the “Inhibition percentage” value is listed as 31.1%.

In turn, `CSC(=S)N1CC(C)(C)CSC1=Nc1ccccc1SC` [Compound I-62] gave a Ki in data set [1] of 44 nM.

Regarding `CSC(=S)N1CC(C)(C)CSC1=Nc1cccc(C(C)C)c1` [Compound I-69], affinity in data set [1] was put at a Ki of 33 nM.

In data set [1], `CSC(=S)N1CC(C)(C)CSC1=Nc1ccc(C)c(C)c1` [Compound I-74] displayed a Ki of 48 nM.

For `COc1ccc(N=C2SCC(C)(C)CN2C(=S)SC)cc1OC` [Compound I-77], the Ki in data set [1] is 53 nM. For the same compound, the “Inhibition percentage” value in data set [4] (setting [5]) is given as 33.8%.

`CCSC(=S)N1CC(C)(C)CSC1=Nc1ccccc1C(C)C` [Compound I-84]: the figures for the Ki in data set [1] and in data set [2] were 35 nM and over 5000 nM, respectively.

In the case of `CCSC(=S)N1CC(C)(C)CSC1=Nc1ccccc1C(C)CC` (stereo not drawn) [Compound I-85], the Ki in data set [1] turned out to be 25 nM.
